Structures can show the parent of a compound that is named as a salt.
Tests used:
hippocampus neurons = assay: inhibition of reduction in survival rate of neurons, hippocampus (number of surviving cells); format: cell-based, rat; settings: for viability at 10 µg/mL / viability at 1 µg/mL / viability at 0.1 µg/mL / viability at 0.01 µg/mL / viability at 0.001 µg/mL: Rattus norvegicus, Neuron, 72 h, control 100%, read-out: Inhibitory effect against reduction in survival rate of neurons (survival rate class); for viability at 10 µg/mL: 10^-5 g/ml; for viability at 1 µg/mL: 10^-6 g/ml; for viability at 0.1 µg/mL: 10^-7 g/ml; for viability at 0.01 µg/mL: 10^-8 g/ml; for viability at 0.001 µg/mL: 10^-9 g/ml
Description: From a rat at the 18th day of pregnancy (having an 18 -day old embryo) the uterus was aseptically removed under etherification, and the fetus was obtained. The whole brain was collected from the fetus. From the brain placed in an L-15 medium were removed under a microscope the hippocampus, striate body, septum, cerebral cortex, and cerebellum. They were respectively minced with a knife. The minced tissue was treated by the addition of trypsin (0.25%) and DNase (0.01%) for 30 minutes at 37° C. to thereby isolate cells. The thus-isolated cells were suspended in Eagle's MEM medium supplemented with 10% fetal calf serum, and inoculated at a concentration of 4×10^4 cells/cm^2 into wells of a 48-well plate which had been coated with poly-L-lysin in advance. Following incubation for 24 hours, the medium was replaced by a serum-free DMEM/F-12 medium containing the drug. After three-days' additional incubation (six days for the striate body), the cells were fixed, stained, and the number of surviving cells in each well was counted. Compounds (2) through (14) were tested analogously to Example 1 using hippocampus cells prepared in a manner similar to Example 1. As structural comparative compounds, the following compounds were used: 4H-pyran-4-one (hereinafter referred as Compound (15) and 3-methoxy-6 -hydroxymethyl-4H-pyran-4-one (hereinafter referred to as Compound (16)).

[1] = test system: hippocampus cells (neurites); assay: branching promotion effect on neurites; format: cell-based, rat; settings: one and two days after addition of the drug
Description: The hippocampus cells obtained in a manner similar to that in Example 1 were incubated for 24 hours in a medium containing fetal calf serum, then for a further 24 hours in a serum-free medium. Subsequently, the drug was added. When one day and two days elapsed after addition of the drug, photographs were taken of the same cells. The number of branches from the longest neurite was counted.

| Compound | viability at 10 µg/mL (hippocampus neurons) [%] | viability at 1 µg/mL (hippocampus neurons) [%] | viability at 0.1 µg/mL (hippocampus neurons) [%] | viability at 0.01 µg/mL (hippocampus neurons) [%] | viability at 0.001 µg/mL (hippocampus neurons) [%] | inhibitory effect against reduction in survival rate of neurons (in words) (hippocampus neurons; hippocampus cells, Example 2) | branching promotion effect on neurites (in words) [1] |
| --- | --- | --- | --- | --- | --- | --- | --- |
| CCCCC(O)c1oc(CO)cc(=O)c1O (centres unmarked) [Compound (10), 3-Hydroxy-6-hydroxymethyl-2-(1'-hydroxypentyl)-4H-pyran-4-one] | 130 to 150 | 110 to 130 | 90 to 110 | 90 to 110 | 90 to 110 | – | – |
| COc1coc(CO)cc1=O [Compound (16), 3-methoxy-6-hydroxymethyl-4H-pyran-4-one, reference compound] | 90 to 110 | 90 to 110 | 90 to 110 | 90 to 110 | 90 to 110 | no inhibitory effect | – |
| CC1=CC(=O)C(O)C=N1 (centres unmarked) [Compound (13), 3-Hydroxy-6-methyl-4-pyridone] | 130 to 150 | 110 to 130 | 90 to 110 | 90 to 110 | 90 to 110 | – | – |
| Cc1cc(=O)c(O)c(CN(C)C)o1 [Compound (7), 3-Hydroxy-6-methyl-2-dimethylaminomethyl-4H-pyran-4-one-HCl] | 110 to 130 | 110 to 130 | 90 to 110 | 90 to 110 | 90 to 110 | – | – |
| Cc1cc(=O)c(O)co1 [Compound (2), 3-Hydroxy-6-methyl-4H-pyran-4-one] | 130 to 150 | 110 to 130 | 90 to 110 | 90 to 110 | 90 to 110 | – | – |
| Cc1cc(=O)c(O)c(C)o1 [Compound (3), 3-Hydroxy-2,6-dimethyl-4H-pyran-4-one] | 110 to 130 | 130 to 150 | 130 to 150 | 110 to 130 | 90 to 110 | – | confirmed to have a branching promotion effect on neurites |
| CCCc1oc(C)cc(=O)c1O [Compound (4), 3-Hydroxy-6-methyl-2-propyl-4H-pyran-4-one] | – | 90 to 110 | 110 to 130 | 90 to 110 | 90 to 110 | – | – |
| O=c1cc(C=Cc2ccccc2)occ1O [Compound (12), 3-Hydroxy-6-styryl-4H-pyran-4-one] | ≤ 90 | 110 to 130 | 110 to 130 | 90 to 110 | 90 to 110 | – | – |

Source: US5962480A, “Drug for ameliorating brain diseases” (Wakunaga Pharmaceutical Co., Ltd., priority 1995, dated 1999)
